Results from patent US4029731A, “Aminophenyltetralin compounds” (Pfizer Inc., priority 1976, dated 1977).
“And” between values parts separate entries of the source, which are not always exact repeats. Equal entries are not always repeated. Structures can show the parent of a compound that is named as a salt.

How the values were obtained:
[1] = test system: reserpine-induced hypothermia in the mouse; assay: Reversal of reserpine-induced hypothermia in the mouse; assay type: in vivo; conditions: 32 mg./kg. i.p., 2 hours after dosing; reserpine 2 mg./kg. s.c. 18 hours before; saline control 25.1° ± 3.2° C.
Experimental: The 1-amino-4-phenyltetraline final products of Examples III-IX were tested for antidepressant activity by measuring their ability to reverse reserpine-induced hypothermia in the mouse according to the procedure described by B.M. Askew in Life Science, Vol. 2, p. 725 (1963). In this test, all the animals were individually housed in plastic chambers with a cardboard bottom. The mice were injected with reserpine subcutaneously at 2 mg./kg. and retained at an ambient temperature of 20° C. for a period of 18 hours. At this point, their rectal temperatures were initially ascertained and immediately thereafter they were divided into groups of 5-20 animals for testing purposes. Each group then received either saline as a control or the compound to be tested at a dose level of 32 mg./kg., administered intraperitoneally, and the resulting rectal temperatures were measured two hours later. In the table below, the entries are reported as mean rectal temperatures for each compound at the 2-hour mark, together with the number of animals tested in each particular group.

[2] = test system: norepinephrine (H^3 NE) uptake into the rat heart; assay: Blockade of tritium-labeled norepinephrine (H^3 NE) uptake into the rat heart in vivo; conditions: 32 μmoles/kg. (8.8 mg./kg.) i.p. 20 minutes before i.v. dl-H^3 NE, each entry a mean from a separate experiment
Experimental: The 1-amino-4-phenyltetralin final products of Examples IV-V and VIII-IX were tested for antidepressant activity by measuring their ability to block tritium-labeled norepinephrine (H^3 NE) uptake into the rat heart in vivo. For these particular studies, rats in groups of five were pretreated with the control vehicle or the drug to be administered at 32 μmoles/kg. (8.8 mg./kg.), via the intraperitoneal route, followed 20 minutes later by intravenous injection of dl-H^3 NE (having a specific activity of 9.5 c/mmole) at a dose level of 5 μc/kg. The rats were then sacrificed one hour ater administration of said agent (H^3 NE), and the norepinephrine (NE) content present in the heart was subsequently isolated therefrom by means of extraction with alumina, followed by repeated elution of said alumina extracts with 0.05N aqueous hydrochloric acid. The specific activity (cpm/μg.) of H^3 NE in the heart was then determined by measuring the amount of radioactivity (using a liquid scintillation counter) and the NE content (fluorimetrically via an Auto-Analyzer of the type manufactured by the Technicon Instruments Corporation of Chauncey, N.Y.) of the aforesaid aqueous eluates. The results obtained in this manner are presented below in the following table, where the individual entries are each made from a separate experiment and constitute mean relative specific activities expressed in terms of percent control: […]

[3] = test system: spontaneous motor activity in mice; assay: Spontaneous motor activity in mice (actophotometer activity counts); assay type: in vivo; conditions: for hyperactive response: same conditions, 0.32, 1.0, 3.2, 10 and 32 mg./kg.
Experimental: A total of seven mice was employed at each dose level tested (viz., at 0.32, 1.0, 3.2, 10 and 32 mg./kg., i.p., respectively) and these mice were separated one to an activity cage. After an initial one-half hour exposure period (for acclimation purposes), each animal in the cage was treated with a sample of the drug intraperitoneally and immediately thereafter returned to said cage, with activity counts every one-half hour being recorded from that point on.

[4] = test system: norepinephrine uptake into both rat heart and rat brain; reserpine hypothermia in mice; assay: Antidepressant activity (norepinephrine uptake into rat heart and rat brain in vivo; reversal of reserpine hypothermia in mice); conditions: base and hydrochloride acid addition salts
Experimental: The activity of the compounds of the present invention as antidepressants is determined by a study of their ability to supress norepinephrine uptake into both rat heart and rat brain (in vivo), together with a determination of their ability to bring about a reversal of reserpine hypothermia in mice.

With `CN[C@@H]1CC[C@@H](c2ccccc2)c2ccccc21` (relative stereo) [Trans-isomer of Example IV, trans-dl-N-methyl-4-phenyl-1,2,3,4-tetrahydro-1-naphthylamine hydrochloride] as the compound, how does the “Mean Rectal Temperature, Temp. (° C.) ±S.D.” value (“Mean Rectal Temperature” below) [1] read?
The value was 33.5 ± 1.5 °C.

What about the “Sp. Activity of Heart H^3 NE (% Control)” value ([2]; hydrochloride) of the same compound?
Its value is 14 % Control and 19 % Control and 21 % Control and 25 % Control.

And the “time course / duration of effect” value ([3]; 32 mg./kg. i.p.)?
Its value is “especially long-lived”.

And the “potency compared with dextrorotatory isomer” value ([3]; i.p., spontaneous motor activity)?
Its value is “somewhat less potent than the aforesaid dextrorotatory isomer”.

For `CCN[C@@H]1CC[C@@H](c2ccccc2)c2ccccc21` (relative stereo) [Trans-isomer of Example V, trans-dl-N-ethyl-4-phenyl-1,2,3,4-tetrahydro-1-naphthylamine hydrochloride], which “Mean Rectal Temperature” value [1] is on record?
The value was 33.5 ± 0.9 °C.

And the “Sp. Activity of Heart H^3 NE (% Control)” value ([2]; hydrochloride)?
Its value is 71 % Control and 75 % Control.

For `CN(C)[C@H]1CC[C@@H](c2ccccc2)c2ccccc21` (relative stereo) [Cis-isomer of Example VIII, cis-dl-N,N-dimethyl-4-phenyl-1,2,3,4-tetrahydro-1-naphthylamine hydrochloride], which “Mean Rectal Temperature” value [1] is on record?
Its value is 31.4 ± 2.4 °C.

What about the “Sp. Activity of Heart H^3 NE (% Control)” value [2] of the same compound?
Its value is 120 % Control.

For `CNCCCC1c2ccccc2C=Cc2ccccc21` [protriptlyine, protriptyline, reference compound], which hyperactive response ([3]; i.p.) is on record?
The hyperactive response was “failed to elicit any hyperactive response whatsoever”.

With `CN(C)[C@@H]1CC[C@@H](c2ccccc2)c2ccccc21` (relative stereo) [trans-dl-N,N-dimethyl-4-phenyl-1,2,3,4-tetrahydro-1-naphthylamine] as the compound, how does the “degree of antidepressant activity” value [4] read?
The value was “markedly high degree of antidepressant activity”.

What does the source list for `N[C@H]1CC[C@@H](c2ccccc2)c2ccccc21` (relative stereo) [Cis-isomer of Example IX, cis-dl-4-phenyl-1,2,3,4-tetrahydro-1-naphthylamine hydrochloride]?
Mean Rectal Temperature, Temp. (° C.) ±S.D. [1]: 30.8 ± 2.6 °C; Sp. Activity of Heart H^3 NE (% Control) [2]: 93 % Control

`CN[C@H]1CC[C@@H](c2ccccc2)c2ccccc21` (relative stereo) [Cis-isomer of Example IV, cis-dl-N-methyl-4-phenyl-1,2,3,4-tetrahydro-1-naphthylamine hydrochloride] was tested. Which “Mean Rectal Temperature” value [1] did it give?
Its value is 27.0 ± 3.4 °C.

And the “Sp. Activity of Heart H^3 NE (% Control)” value ([2]; hydrochloride)?
Its value is 87 % Control and 104 % Control.

`CC(C)N[C@@H]1CC[C@@H](c2ccccc2)c2ccccc21` (relative stereo) [trans-dl-N-isopropyl-4-phenyl-1,2,3,4-tetrahydro-1naphthylamine] was tested. Which “degree of antidepressant activity” value [4] did it give?
The value was “markedly high degree of antidepressant activity”.

With `CCN[C@H]1CC[C@@H](c2ccccc2)c2ccccc21` (relative stereo) [Cis-isomer of Example V, cis-dl-N-ethyl-4-phenyl-1,2,3,4-tetrahydro-1-naphthylamine hydrochloride] as the compound, how does the “Mean Rectal Temperature” value [1] read?
Its value is 28.0 ± 2.3 °C.

And the “Sp. Activity of Heart H^3 NE (% Control)” value [2]?
Its value is 144 % Control.

Which “Mean Rectal Temperature” value [1] does the source give for `CC(C)N[C@@H]1CC[C@@H](c2ccccc2)c2ccccc21` (relative stereo) [Trans-isomer of Example VI, trans-dl-N-isopropyl-4-phenyl-1,2,3,4-tetrahydro-1-naphthylamine hydrochloride] here?
Its value is 32.6 ± 0.7 °C.

`CC(C)N[C@H]1CC[C@@H](c2ccccc2)c2ccccc21` (relative stereo) [Cis-isomer of Example VI, cis-dl-N-isopropyl-4-phenyl-1,2,3,4-tetrahydro-1-naphthylamine hydrochloride] was tested. Which “Mean Rectal Temperature” value [1] did it give?
Its value is 27.3 ± 3.6 °C.

With `c1ccc([C@@H]2CC[C@H](NC3CC3)c3ccccc32)cc1` (relative stereo) [Cis-isomer of Example VII, cis-dl-N-cyclopropyl-4-phenyl-1,2,3,4-tetrahydro-1-naphthylamine hydrochloride] as the compound, how does the “Mean Rectal Temperature” value [1] read?
Its value is 25.3 ± 4.4 °C.

With `CCN[C@@H]1CC[C@@H](c2ccccc2)c2ccccc21` (relative stereo) [trans-dl-N-ethyl-4-phenyl-1,2,3,4-tetrahydro-1-naphthylamine] as the compound, how does the “degree of antidepressant activity” value [4] read?
Its value is “markedly high degree of antidepressant activity”.

With `CNCCCN1c2ccccc2CCc2ccccc21` [desmethylimipramine, reference compound] as the compound, how does the hyperactive response ([3]; i.p.) read?
Its hyperactive response is “failed to elicit any hyperactive response whatsoever”.

Which “Mean Rectal Temperature” value [1] does the source give for `CN(C)[C@@H]1CC[C@@H](c2ccccc2)c2ccccc21` (relative stereo) [Trans-isomer of Example VIII, trans-dl-N,N-dimethyl-4-phenyl-1,2,3,4-tetrahydro-1-naphthylamine hydrochloride] here?
Its value is 33.5 ± 1.4 °C.

What about the “Sp. Activity of Heart H^3 NE (% Control)” value [2] of the same compound?
The value was 49 % Control.

How did the “Mean Rectal Temperature” value [1] turn out when `Cl.N[C@@H]1CC[C@@H](c2ccccc2)c2ccccc21` (relative stereo) [Trans-isomer of Example IX, trans-4-phenyl-1,2,3,4-tetrahydro-1-naphthylamine hydrochloride] was run?
Its value is 31.8 ± 2.5 °C.

What about the “Sp. Activity of Heart H^3 NE (% Control)” value ([2]; hydrochloride) of the same compound?
The value was 60 % Control and 66 % Control.

How did the “degree of antidepressant activity” value [4] turn out when `c1ccc([C@@H]2CC[C@@H](NC3CC3)c3ccccc32)cc1` (relative stereo) [trans-dl-N-cyclopropyl-4-phenyl-1,2,3,4-tetrahydro-1-naphthylamine] was run?
The value was “markedly high degree of antidepressant activity”.

For `CN[C@H]1CC[C@H](c2ccccc2)c2ccccc21` [Trans-l-isomer of Example III, trans-l-N-methyl-4-phenyl-1,2,3,4-tetrahydro-1-naphthylamine hydrochloride], which “Mean Rectal Temperature” value [1] is on record?
Its value is 27.5 ± 2.9 °C.

What about the stimulant effect ([3]; 10 and 32 mg./kg. (i.p.)) of the same compound?
The stimulant effect was “little evidence of a stimulant effect”.

How did the “Mean Rectal Temperature” value [1] turn out when `c1ccc([C@@H]2CC[C@@H](NC3CC3)c3ccccc32)cc1` (relative stereo) [Trans-isomer of Example VII, trans-dl-N-cyclopropyl-4-phenyl-1,2,3,4-tetrahydro-1-naphthylamine hydrochloride] was run?
Its value is 32.6 ± 0.7 °C.

How did the “degree of antidepressant activity” value [4] turn out when `N[C@@H]1CC[C@@H](c2ccccc2)c2ccccc21` (relative stereo) [trans-dl-4-phenyl-1,2,3,4-tetrahydro-1-naphthylamine] was run?
The value was “markedly high degree of antidepressant activity”.
